{"source": "patent US8657798B2", "about": "“Anti-inflammatory analgesic adhesive patch for external use” (Teikoku Seiyaku Co., Ltd., priority 2010, dated 2014)", "origin": "cited, not measured here", "conditions": "compared with diclofenac sodium", "data": [{"substance": "Diclofenac hydroxyethylpyrrolidine", "values": [{"measurement": "water solubility", "result": "better water solubility than diclofenac sodium"}]}]}
